Measurements from ChEMBL document CHEMBL3098003, “Structure-based design of 2-aminopyridine oxazolidinones as potent and selective tankyrase inhibitors” (ACS Med Chem Lett, 2013).
Active and inactive are the calls of the source. The calls are words filed in the database; no cut-off is given here.

Tests used:
[1] = test system: Mus musculus; experiment: In vivo inhibition of tankyrase in tumor of athymic nude mouse xenografted with human DLD1 cells assessed as axin accumulation at 50 mg/kg, po bid for 3 days; format: functional, organism-based; design: dose 50 mg/kg; conditions: DLD-1
[2] = test system: Mus musculus; experiment: Toxicity in athymic nude mouse assessed as diarrhea at 100 mg/kg, po bid for 8 days; format: organism-based; design: dose 100 mg/kg, route oral; conditions: in vivo, 192 h
[3] = biological target: Cannabinoid receptor 1 (Homo sapiens, UniProt P21554); experiment: Binding affinity to CB1 receptor (unknown origin)
Chain of Cannabinoid receptor 1 (P21554 whole entry): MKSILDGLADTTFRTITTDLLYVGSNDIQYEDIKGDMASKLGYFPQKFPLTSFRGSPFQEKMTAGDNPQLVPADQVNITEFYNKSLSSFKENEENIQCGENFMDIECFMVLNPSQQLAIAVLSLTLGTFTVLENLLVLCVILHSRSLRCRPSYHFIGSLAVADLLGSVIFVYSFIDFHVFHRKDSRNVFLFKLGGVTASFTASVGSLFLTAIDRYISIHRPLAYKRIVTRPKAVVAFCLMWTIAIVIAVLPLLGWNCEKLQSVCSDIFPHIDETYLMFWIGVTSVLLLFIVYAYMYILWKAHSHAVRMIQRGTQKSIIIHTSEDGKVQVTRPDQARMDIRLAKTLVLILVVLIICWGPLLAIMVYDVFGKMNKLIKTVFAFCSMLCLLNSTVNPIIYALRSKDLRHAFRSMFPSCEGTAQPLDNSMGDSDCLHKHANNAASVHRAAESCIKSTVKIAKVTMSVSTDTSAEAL

[4] = biological target: Voltage-gated inwardly rectifying potassium channel KCNH2 (Homo sapiens, UniProt Q12809); experiment: Inhibition of human ERG
Chain of Voltage-gated inwardly rectifying potassium channel KCNH2 (Q12809 whole entry): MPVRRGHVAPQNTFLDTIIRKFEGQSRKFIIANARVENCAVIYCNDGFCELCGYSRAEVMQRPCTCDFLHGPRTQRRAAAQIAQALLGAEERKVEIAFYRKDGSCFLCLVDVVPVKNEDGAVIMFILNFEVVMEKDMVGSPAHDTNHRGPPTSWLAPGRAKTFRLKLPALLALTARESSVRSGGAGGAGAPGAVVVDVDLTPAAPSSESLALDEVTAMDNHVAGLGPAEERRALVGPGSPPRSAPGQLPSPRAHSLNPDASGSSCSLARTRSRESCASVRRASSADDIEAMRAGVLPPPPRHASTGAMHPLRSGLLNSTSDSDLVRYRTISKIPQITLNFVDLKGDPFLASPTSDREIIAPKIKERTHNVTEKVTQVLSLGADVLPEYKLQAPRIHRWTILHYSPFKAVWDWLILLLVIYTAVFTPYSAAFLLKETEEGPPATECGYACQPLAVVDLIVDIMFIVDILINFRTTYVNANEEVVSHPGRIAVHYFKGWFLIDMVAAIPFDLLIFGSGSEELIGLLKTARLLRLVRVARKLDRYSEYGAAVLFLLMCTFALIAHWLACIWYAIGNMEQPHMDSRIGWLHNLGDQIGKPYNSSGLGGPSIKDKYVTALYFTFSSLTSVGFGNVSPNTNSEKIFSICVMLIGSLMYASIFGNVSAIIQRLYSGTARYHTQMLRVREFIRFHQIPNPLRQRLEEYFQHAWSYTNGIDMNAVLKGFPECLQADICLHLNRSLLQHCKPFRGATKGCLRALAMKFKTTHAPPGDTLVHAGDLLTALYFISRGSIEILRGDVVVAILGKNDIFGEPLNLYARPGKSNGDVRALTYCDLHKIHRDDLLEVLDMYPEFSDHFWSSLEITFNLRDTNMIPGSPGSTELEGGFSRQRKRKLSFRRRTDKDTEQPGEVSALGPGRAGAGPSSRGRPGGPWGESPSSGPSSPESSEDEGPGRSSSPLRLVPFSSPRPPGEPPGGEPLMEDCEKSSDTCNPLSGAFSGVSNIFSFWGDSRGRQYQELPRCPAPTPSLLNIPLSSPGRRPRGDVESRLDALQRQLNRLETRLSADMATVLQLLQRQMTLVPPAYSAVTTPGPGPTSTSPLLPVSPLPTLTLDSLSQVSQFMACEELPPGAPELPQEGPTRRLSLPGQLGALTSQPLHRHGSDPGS

[5] = test system: Mus musculus; experiment: In vivo inhibition of tankyrase-mediated Wnt gene transcription in tumor of athymic nude mouse xenografted with human DLD1 cells at 50 mg/kg, po bid for 3 days by STF assay; format: functional, organism-based; design: dose 50 mg/kg; conditions: DLD-1
[6] = biological target: Adenosine receptor A2a (Homo sapiens, UniProt P29274); experiment: Binding affinity to adenosine A2A receptor (unknown origin)
Chain of Adenosine receptor A2a (P29274 whole entry): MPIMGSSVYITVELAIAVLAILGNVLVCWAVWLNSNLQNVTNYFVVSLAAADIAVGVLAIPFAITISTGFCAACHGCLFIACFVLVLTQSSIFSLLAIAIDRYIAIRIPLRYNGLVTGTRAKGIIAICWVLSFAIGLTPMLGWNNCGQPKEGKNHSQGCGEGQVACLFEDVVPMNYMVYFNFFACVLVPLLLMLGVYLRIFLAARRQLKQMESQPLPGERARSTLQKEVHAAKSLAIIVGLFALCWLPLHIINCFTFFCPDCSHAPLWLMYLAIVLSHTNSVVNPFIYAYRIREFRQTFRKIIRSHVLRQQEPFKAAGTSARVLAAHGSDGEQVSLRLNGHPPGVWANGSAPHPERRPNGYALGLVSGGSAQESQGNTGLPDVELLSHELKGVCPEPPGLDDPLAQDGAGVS

[7] = biological target: C-X-C chemokine receptor type 2 (Homo sapiens, UniProt P25025); experiment: Binding affinity to CXCR2 (unknown origin)
[8] = biological target: Histamine H1 receptor (Homo sapiens, UniProt P35367); experiment: Binding affinity to histamine H1 receptor (unknown origin)
[9] = biological target: Mu-type opioid receptor (Homo sapiens, UniProt P35372); experiment: Binding affinity to mu opioid receptor (unknown origin)
[10] = biological target: Muscarinic acetylcholine receptor M1 (Homo sapiens, UniProt P11229); experiment: Binding affinity to muscarinic M1 receptor (unknown origin)
[11] = Terminal plasma concentration in athymic nude mouse xenografted with human DLD1 cells at 50 mg/kg, po bid for 3 days; format: ADME, organism-based, DLD-1; design: dose 50 mg/kg, route oral; conditions: read-out: Cp(T)
[12] = biological target: Bile salt export pump (Homo sapiens, UniProt O95342); experiment: Inhibition of BSEP (unknown origin)
Chain of Bile salt export pump (O95342 whole entry): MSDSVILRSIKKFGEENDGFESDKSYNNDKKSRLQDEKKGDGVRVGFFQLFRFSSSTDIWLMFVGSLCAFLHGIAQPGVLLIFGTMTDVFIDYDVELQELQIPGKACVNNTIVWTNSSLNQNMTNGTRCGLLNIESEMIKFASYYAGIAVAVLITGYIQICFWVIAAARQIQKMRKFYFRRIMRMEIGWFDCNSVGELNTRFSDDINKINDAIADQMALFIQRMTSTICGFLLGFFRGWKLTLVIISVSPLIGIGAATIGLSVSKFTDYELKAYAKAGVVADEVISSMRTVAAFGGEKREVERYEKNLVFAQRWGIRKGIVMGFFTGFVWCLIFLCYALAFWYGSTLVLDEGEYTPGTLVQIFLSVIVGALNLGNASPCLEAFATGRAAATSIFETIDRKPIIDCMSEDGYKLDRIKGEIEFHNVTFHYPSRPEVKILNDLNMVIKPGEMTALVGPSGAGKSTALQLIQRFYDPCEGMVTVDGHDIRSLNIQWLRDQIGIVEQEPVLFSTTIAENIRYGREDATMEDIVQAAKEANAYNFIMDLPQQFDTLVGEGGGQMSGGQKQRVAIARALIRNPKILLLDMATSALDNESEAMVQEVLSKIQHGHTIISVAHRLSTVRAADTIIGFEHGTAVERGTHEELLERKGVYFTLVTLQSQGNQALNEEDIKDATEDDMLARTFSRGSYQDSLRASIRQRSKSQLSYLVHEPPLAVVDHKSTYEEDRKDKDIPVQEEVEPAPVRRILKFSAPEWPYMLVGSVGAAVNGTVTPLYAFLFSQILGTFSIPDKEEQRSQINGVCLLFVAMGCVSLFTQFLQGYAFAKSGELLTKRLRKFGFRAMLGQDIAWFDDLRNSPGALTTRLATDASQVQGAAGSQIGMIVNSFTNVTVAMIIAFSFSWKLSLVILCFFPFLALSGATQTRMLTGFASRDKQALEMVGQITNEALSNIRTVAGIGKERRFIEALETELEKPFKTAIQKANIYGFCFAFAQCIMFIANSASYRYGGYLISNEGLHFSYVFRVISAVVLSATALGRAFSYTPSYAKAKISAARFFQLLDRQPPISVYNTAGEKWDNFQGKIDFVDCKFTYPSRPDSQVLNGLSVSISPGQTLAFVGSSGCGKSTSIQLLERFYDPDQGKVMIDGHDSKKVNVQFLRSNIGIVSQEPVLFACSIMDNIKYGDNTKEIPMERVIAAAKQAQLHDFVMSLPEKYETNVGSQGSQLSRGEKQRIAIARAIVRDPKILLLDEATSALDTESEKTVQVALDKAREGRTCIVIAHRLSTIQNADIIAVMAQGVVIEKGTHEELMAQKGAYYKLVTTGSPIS

[13] = test system: Mus musculus; experiment: Toxicity in athymic nude mouse assessed as hunched posture at 100 mg/kg, po bid for 8 days; format: organism-based; design: dose 100 mg/kg, route oral; conditions: in vivo, 192 h
[14] = biological target: Substance-P receptor (Homo sapiens, UniProt P25103); experiment: Binding affinity to NK1 receptor (unknown origin)
Chain of Substance-P receptor (P25103 whole entry): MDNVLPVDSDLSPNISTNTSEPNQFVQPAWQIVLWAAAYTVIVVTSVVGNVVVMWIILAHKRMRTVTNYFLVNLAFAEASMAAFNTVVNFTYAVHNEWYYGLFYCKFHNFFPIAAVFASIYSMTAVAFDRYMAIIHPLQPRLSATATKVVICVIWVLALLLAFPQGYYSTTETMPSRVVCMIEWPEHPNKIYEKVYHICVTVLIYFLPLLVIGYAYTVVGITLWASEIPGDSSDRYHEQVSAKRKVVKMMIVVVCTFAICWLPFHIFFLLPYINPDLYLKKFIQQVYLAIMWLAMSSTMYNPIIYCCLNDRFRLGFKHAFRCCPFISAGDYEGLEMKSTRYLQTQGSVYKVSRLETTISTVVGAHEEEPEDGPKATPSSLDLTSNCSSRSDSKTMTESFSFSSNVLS

[15] = biological target: Poly [ADP-ribose] polymerase tankyrase-2 (Homo sapiens, UniProt Q9H2K2); experiment: Inhibition of recombinant TNKS2 (unknown origin) after 60 mins by spectrophotometric analysis
Chain of Poly [ADP-ribose] polymerase tankyrase-2 (Q9H2K2 whole entry): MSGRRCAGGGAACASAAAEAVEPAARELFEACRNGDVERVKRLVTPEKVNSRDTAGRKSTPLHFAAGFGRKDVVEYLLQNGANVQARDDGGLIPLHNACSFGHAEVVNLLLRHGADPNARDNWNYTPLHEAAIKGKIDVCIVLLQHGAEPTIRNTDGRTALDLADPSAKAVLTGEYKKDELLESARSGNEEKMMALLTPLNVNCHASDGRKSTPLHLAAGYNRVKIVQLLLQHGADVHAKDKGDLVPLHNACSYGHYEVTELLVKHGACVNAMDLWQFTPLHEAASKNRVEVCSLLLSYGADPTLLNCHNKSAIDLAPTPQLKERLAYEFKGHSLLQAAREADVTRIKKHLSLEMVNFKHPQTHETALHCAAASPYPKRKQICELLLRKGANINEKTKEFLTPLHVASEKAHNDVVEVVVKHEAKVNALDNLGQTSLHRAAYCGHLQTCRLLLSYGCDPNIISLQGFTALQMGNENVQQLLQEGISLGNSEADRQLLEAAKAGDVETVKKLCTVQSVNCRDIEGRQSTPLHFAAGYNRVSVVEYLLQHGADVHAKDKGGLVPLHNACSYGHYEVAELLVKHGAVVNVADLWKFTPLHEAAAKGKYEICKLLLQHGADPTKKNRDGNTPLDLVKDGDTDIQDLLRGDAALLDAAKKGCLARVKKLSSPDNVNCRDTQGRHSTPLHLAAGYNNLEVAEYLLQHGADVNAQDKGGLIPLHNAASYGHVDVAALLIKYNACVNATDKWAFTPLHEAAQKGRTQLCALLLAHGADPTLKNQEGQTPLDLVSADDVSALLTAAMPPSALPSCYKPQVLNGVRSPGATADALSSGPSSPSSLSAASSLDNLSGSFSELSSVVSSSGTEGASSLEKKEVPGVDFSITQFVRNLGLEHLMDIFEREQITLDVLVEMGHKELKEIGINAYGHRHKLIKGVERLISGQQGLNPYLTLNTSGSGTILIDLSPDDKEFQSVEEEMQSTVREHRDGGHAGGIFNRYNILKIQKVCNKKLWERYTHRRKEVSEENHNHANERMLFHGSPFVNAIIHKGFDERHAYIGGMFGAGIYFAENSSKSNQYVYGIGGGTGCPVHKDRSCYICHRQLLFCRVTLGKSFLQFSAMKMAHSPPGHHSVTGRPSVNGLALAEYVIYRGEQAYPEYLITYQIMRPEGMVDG

[16] = test system: Mus musculus; experiment: Toxicity in athymic nude mouse assessed as dehydration at 100 mg/kg, po bid for 8 days; format: organism-based; design: dose 100 mg/kg, route oral; conditions: in vivo, 192 h
[17] = test system: Mus musculus; experiment: Toxicity in athymic nude mouse assessed as cold at 100 mg/kg, po bid for 8 days; format: organism-based; design: dose 100 mg/kg, route oral; conditions: in vivo, 192 h
[18] = test system: Mus musculus; experiment: In vivo inhibition of tankyrase-mediated Wnt gene transcription in tumor of athymic nude mouse xenografted with human DLD1 cells at 200 mg/kg, po bid for 3 days by STF assay; format: functional, organism-based; design: dose 200 mg/kg; conditions: DLD-1
[19] = Intrinsic clearance in human liver microsomes; format: ADME; conditions: read-out: CLH
[20] = Terminal plasma concentration in athymic nude mouse xenografted with human DLD1 cells at 200 mg/kg, po bid for 3 days; format: ADME, organism-based, DLD-1; design: dose 200 mg/kg, route oral; conditions: read-out: Cp(T)
[21] = Intrinsic clearance in rat liver microsomes; format: ADME; conditions: read-out: CLH

In the case of `CC1(C)OC(=O)N([C@H]2CC[C@H](c3cnc(N)c(-c4ncccn4)c3)CC2)[C@H]1c1ccccc1`, the inhibition [1] is reported as “Active”, the Activity [2] is reported as “Toxic” and the IC50 [3] is reported as > 48.5 µM. The IC50 [4] was 10.9 µM, the inhibition [5] was “Active” and the IC50 [6] was > 48.5 µM. The IC50 [7] was > 48.5 µM, the IC50 [8] was > 48.5 µM and the IC50 [9] was > 48.5 µM. For the same compound, the IC50 [10] was > 48.5 µM, the concentration at 72 h [11] was 0.12 µM and the IC50 [12] was 11 µM. For the same compound, the Activity [13] was “Toxic”, the IC50 [14] was > 48.5 µM and the IC50 [15] was 0.002 µM. The Activity [16] was “Toxic” and the Activity [17] was “Toxic”.

For `CC1(C)OC(=O)N(c2ccc(-c3cnc(N)c(-c4ncccn4)c3)cc2)[C@H]1c1ccccc1`, the inhibition [18] was “Active”, the microsomal CLint [19] was 33 µL/min/mg and the concentration at 72 h [20] was 22.1 µM. For the same compound, the microsomal CLint [21] was 48 µL/min/mg.
